This note sets out measurements from US8884061B2, “Compositions and methods of use of electron transport system inhibitors” (priority 2006, dated 2014).

In brackets after ≈: the same amount, converted by molar mass.

The subject of assay [1] is M. tuberculosis H37Rv. The assay is described as follows: MIC, colorimetric microtiter plate method with Alamar blue. The format is cell-based. The settings on record: Mycobacterium tuberculosis, read-out: MIC (μg/mL) M. tuberculosis. Here is the method: Activity Against M. Tuberculosis
The minimum inhibitory concentration (MIC) of compounds were determined against H37Rv by a colorimetric microtiter plate based method with Alamar blue.
For orientation: Resazurin is reduced to fluorescent resorufin, in cell work by metabolically active cells.

Another assay deals with MenA (Mycobacterium tuberculosis, UniProt P9WIP3). The assay is described as follows: In vitro assay against MenA (membrane fractions). The format is biochemical. Conditions: membrane fractions from M. tuberculosis; 5 μM farnesyl diphosphate, 50 μM dihydroxynaphthoic acid, pH 8.5; read-out: IC50 (μmol) MenA.
The test system of the next assay is M. tuberculosis Kurono. The experiment in a line: MIC, agar (7H11) dilution method. It counts as cell-based. Conditions: Mycobacterium tuberculosis; M. tuberculosis Kurono; agar (7H11) dilution; read-out: Minimum inhibitory concentrations (MIC).
The subject of a further assay is M. fortuitum NIHJ1615. The assay is described as follows: MIC, agar (7H11) dilution method. It counts as cell-based. Conditions: Mycolicibacterium fortuitum, read-out: Minimum inhibitory concentrations (MIC).
For the next assay, the system named is M. smegmatis Takeo. The assay is described as follows: MIC, agar (7H11) dilution method. Conditions: Mycolicibacterium smegmatis, read-out: Minimum inhibitory concentrations (MIC). It counts as cell-based.
The next assay deals with M. aurum. The assay is described as follows: MIC, agar (7H11) dilution method. It counts as cell-based. Conditions: Mycolicibacterium aurum, read-out: Minimum inhibitory concentrations (MIC).
Assay [2] concerns M. intracellularae ATCC 15984. The experiment in a line: MIC, agar (7H11) dilution method. It counts as cell-based. The settings on record: read-out: Minimum inhibitory concentrations (MIC).
For another assay, the system named is M. kansasii NIHJ1619. The assay is described as follows: MIC, agar (7H11) dilution method. The settings on record: Mycobacterium kansasii, read-out: Minimum inhibitory concentrations (MIC). The format is cell-based.
The subject of assay [3] is M. tuberculosis H37Rv. The assay is described as follows: MIC, agar (7H11) dilution method. It counts as cell-based. The settings on record: Mycobacterium tuberculosis, H37RV, M. tuberculosis H37Rv, read-out: Minimum inhibitory concentrations (MIC).
For another assay, the system named is M. avium Flamingo. The assay is described as follows: MIC, agar (7H11) dilution method. The settings on record: Mycobacterium avium, read-out: Minimum inhibitory concentrations (MIC). It counts as cell-based.
Another assay has as its system M. bovis BCG Tokyo. The assay is described as follows: microbe, parasite or virus in culture. The format is cell-based. The settings on record: Mycobacterium tuberculosis variant bovis BCG, BCG, read-out: Minimum inhibitory concentrations (MIC).
The mark [4] stands for this setting: table line r8 (2nd of 5 so labelled).
The mark [5] stands for this setting: table line r9 (3rd of 5 so labelled).
Where [6] appears, read: table line r10 (4th of 5 so labelled).
[7] abbreviates: table line r11 (5th of 5 so labelled).

Chain of MenA (P9WIP3 whole entry): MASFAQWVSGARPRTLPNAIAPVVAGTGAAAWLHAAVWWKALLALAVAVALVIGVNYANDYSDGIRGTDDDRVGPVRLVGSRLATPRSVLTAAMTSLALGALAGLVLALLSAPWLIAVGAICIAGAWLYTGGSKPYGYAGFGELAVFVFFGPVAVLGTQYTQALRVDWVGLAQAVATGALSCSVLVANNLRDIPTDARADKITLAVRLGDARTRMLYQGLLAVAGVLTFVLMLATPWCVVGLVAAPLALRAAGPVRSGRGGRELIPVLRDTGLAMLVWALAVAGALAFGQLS

For `C=CCN(C)CCCCCCCCOc1ccc(C(O)c2ccc(Br)cc2)cc1` (centres unmarked) [Cpd 4], the MIC with M. tuberculosis H37Rv [1] came out at 7 µg/mL (≈ 15.2 µM). Further, on MenA, the IC50 (as a rule, the concentration that inhibits the measured activity by half) is 12 µM.

In the case of `C=CCN(C)CCCCCCCCOc1ccc(C(=O)c2ccc(Cl)cc2)cc1` [Cpd 5, (4-(8-(Allyl(methyl)amino)octyloxy)phenyl)(4-chlorophenyl)methanone], in the assay with M. tuberculosis H37Rv [1], the MIC came to 0.3 µg/mL (≈ 0.725 µM). The IC50 on MenA stood at 5 µM.

For `C=CCN(C)CCCCCCCCOc1ccc(C(O)c2ccc(Cl)cc2Cl)cc1` (centres unmarked) [Cpd 8], in the assay with M. tuberculosis H37Rv [1], the MIC stood at 5 µg/mL (≈ 11.1 µM). Moreover, at MenA, the IC50 is 12 µM.

Regarding `C=CCN(C)CCCCCCCCOc1ccc(C(=O)c2ccc(Br)cc2)cc1` [Cpd 2], in the assay with M. tuberculosis H37Rv [1], the MIC came out at 4 µg/mL (≈ 8.73 µM). In addition, the IC50 at MenA turned out to be 10 µM.

Take `C=CCN(C)CCCCCCCCOc1ccc(C(O)c2ccc(Cl)cc2)c(Cl)c1` (centres unmarked) [Cpd 10, (4-(8-(allyl(methyl)amino)octyloxy)-2-chlorophenyl)(4-chlorophenyl)methanol]: the MIC with M. tuberculosis H37Rv [1] was found to be 0.6 µg/mL (≈ 1.33 µM). Further, the IC50 at MenA was less than 2.5 µM.

Regarding `CO[C@H]1/C=C/O[C@@]2(C)Oc3c(C)c(O)c4c(O)c(c(/C=N/N5CCN(C)CC5)c(O)c4c3C2=O)NC(=O)/C(C)=C\C=C\[C@H](C)[C@H](O)[C@@H](C)[C@@H](O)[C@@H](C)[C@H](OC(C)=O)[C@@H]1C` [RFP, Rifampicin, reference compound], the MIC in the assay on M. tuberculosis Kurono is 0.1 µg/mL (≈ 0.122 µM); with M. fortuitum NIHJ1615, greater than 25 µg/mL; with M. smegmatis Takeo, greater than 25 µg/mL; in the assay on M. aurum, 0.78 µg/mL (≈ 0.948 µM); in assay [2] it was 3.13 µg/mL (≈ 3.8 µM); in the assay on M. kansasii NIHJ1619, 3.13 µg/mL (≈ 3.8 µM). Moreover, the MIC in the assay with M. tuberculosis H37Rv [3] (setting [4]) is 0.1 µg/mL (≈ 0.122 µM); in the assay with M. tuberculosis H37Rv [3] (setting [5]), 0.2 µg/mL (≈ 0.243 µM); in the assay on M. tuberculosis H37Rv [3] (setting [6]) it was greater than 25 µg/mL; in the assay on M. tuberculosis H37Rv [3] (setting [7]) it was 0.2 µg/mL (≈ 0.243 µM); with M. avium Flamingo, 3.13 µg/mL (≈ 3.8 µM); in the assay with M. bovis BCG Tokyo, 0.1 µg/mL (≈ 0.122 µM).

As for `C=CCN(C)CCCCCCCCOc1ccc(C(O)c2ccc(Cl)cc2)cc1` (centres unmarked) [Cpd 6, (4-(8-(allyl(methyl)amino)octyloxy)phenyl)(4-chlorophenyl)methanol], the MIC with M. tuberculosis H37Rv [1] was 3 µg/mL (≈ 7.21 µM). Besides, the IC50 at MenA amounted to 10 µM.

Take `C=CCN(C)CCCCCCCOc1ccc(C(O)c2ccc(Br)cc2)cc1` (centres unmarked) [Cpd 3]: the MIC with M. tuberculosis H37Rv [1] is 5 µg/mL (≈ 11.2 µM). The IC50 at MenA was 15 µM.

Take `CN(CCCCCCCCOc1ccc(C(=O)c2ccc(Cl)cc2)c(Cl)c1)Cc1ccccc1` [Cpd 12]: the MIC with M. tuberculosis H37Rv [1] was 12 µg/mL (≈ 24.1 µM). For the same molecule, the IC50 on MenA was determined as 13 µM.

For the molecule `C=CCN(C)CCCCCCCCOc1ccc(C(=O)c2ccc(Cl)cc2Cl)cc1` [Cpd 7, (4-(8-(Allyl(methyl)amino)octyloxy)phenyl)(2,4-dichlorophenyl)methanone], in the assay with M. tuberculosis H37Rv [1], the MIC stood at 4 µg/mL (≈ 8.92 µM). Moreover, the IC50 on MenA stood at 10 µM.

Take `NNC(=O)c1ccncc1` [INH, isoniazid, reference compound]: the MIC in the assay with M. tuberculosis Kurono was found to be 0.05 µg/mL (≈ 0.365 µM); in the assay on M. fortuitum NIHJ1615 it was 6.25 µg/mL (≈ 45.6 µM); with M. smegmatis Takeo, 12.5 µg/mL (≈ 91.1 µM); in the assay with M. aurum it was 6.25 µg/mL (≈ 45.6 µM); in assay [2], 12.5 µg/mL (≈ 91.1 µM); in the assay on M. kansasii NIHJ1619, 12.5 µg/mL (≈ 91.1 µM). In addition, the MIC with M. tuberculosis H37Rv [3] (setting [4]) was 0.1 µg/mL (≈ 0.729 µM); in the assay with M. tuberculosis H37Rv [3] (setting [5]) it was greater than 25 µg/mL; in the assay with M. tuberculosis H37Rv [3] (setting [6]) it was 0.05 µg/mL (≈ 0.365 µM); with M. tuberculosis H37Rv [3] (setting [7]) it was 0.1 µg/mL (≈ 0.729 µM); with M. avium Flamingo, greater than 25 µg/mL; with M. bovis BCG Tokyo, 0.1 µg/mL (≈ 0.729 µM).

Regarding `C=CCN(C)CCCCCCCCOc1ccc(C(=O)c2ccc(Cl)cc2)c(O)c1` [Cpd 13, (4-(8-(allyl(methyl)amino)octyloxy)-2-hydroxyphenyl)(4-chlorophenyl)methanone], the MIC with M. tuberculosis H37Rv [1] is 0.2 µg/mL (≈ 0.465 µM). Moreover, the IC50 at MenA is less than 2.5 µM.

With `C#CCN(C)CCCCCCCCOc1ccc(C(=O)c2ccc(Cl)cc2)c(Cl)c1` [Cpd 11, (2-Chloro-4-(8-(methyl(prop-2-ynyl)amino)octyloxy)phenyl)(4-chlorophenyl)methanone], in the assay with M. tuberculosis H37Rv [1], the MIC was 12 µg/mL (≈ 26.9 µM). In addition, the IC50 on MenA was determined as 15 µM.

As to `C=CCN(C)CCCCCCCOc1ccc(C(=O)c2ccc(Br)cc2)cc1` [Cpd 1, (4-(7-(allyl(methyl)amino)heptyloxy)phenyl)(4-bromophenyl)methanone], the MIC in the assay on M. tuberculosis H37Rv [1] came out at 5 µg/mL (≈ 11.3 µM). At MenA, the IC50 was 12 µM.

As for `C=CCN(C)CCCCCCCCOc1ccc(C(=O)c2ccc(Cl)cc2)c(Cl)c1` [Cpd 9], in the assay with M. tuberculosis H37Rv [1], the MIC was found to be 0.6 µg/mL (≈ 1.34 µM). In addition, on MenA, the half-maximal inhibitory concentration (IC50) turned out to be 4 µM.
